According to patent US10738041B2, “Ferroportin inhibitors” (Vifor (International) AG, priority 2015, dated 2020):

Columns and labels:
ferroportin (Fpn) = target: T1, ferroportin (Fpn) (Mus musculus, UniProt Q9JHI9); experiment: Hepcidin Internalization Assay (J774); assay type: cell-based; conditions: average of multiple measurements; inhibition of TMR-hepcidin (25 nM) internalization into J774 cells; read-out: J774 IC50
T1 construct: host or cells: J774 mouse macrophage cell line, Fe(III)-NTA induced
T1 sequence (Q9JHI9 1-570): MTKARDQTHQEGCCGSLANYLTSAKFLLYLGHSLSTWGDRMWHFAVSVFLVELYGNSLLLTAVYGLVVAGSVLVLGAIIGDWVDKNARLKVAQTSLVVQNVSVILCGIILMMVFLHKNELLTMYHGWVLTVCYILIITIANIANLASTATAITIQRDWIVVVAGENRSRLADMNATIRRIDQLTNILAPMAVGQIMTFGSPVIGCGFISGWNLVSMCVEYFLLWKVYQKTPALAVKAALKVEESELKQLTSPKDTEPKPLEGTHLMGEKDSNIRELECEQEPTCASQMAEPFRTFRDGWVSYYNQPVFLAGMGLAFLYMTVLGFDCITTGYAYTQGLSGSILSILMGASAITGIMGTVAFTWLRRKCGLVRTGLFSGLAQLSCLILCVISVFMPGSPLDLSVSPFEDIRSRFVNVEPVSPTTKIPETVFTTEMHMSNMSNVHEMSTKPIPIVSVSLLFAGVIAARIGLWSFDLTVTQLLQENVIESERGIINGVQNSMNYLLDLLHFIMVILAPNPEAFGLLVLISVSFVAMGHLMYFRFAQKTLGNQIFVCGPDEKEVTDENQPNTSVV
Text: This cellular assay allows quantification of the binding of hepcidin to ferroportin (Fpn) through microscopic detection of internalization of a fluorescently labeled hepcidin into J774 cells. […] Binding of hepcidin to Fpn triggers internalization and degradation of both hepcidin and Fpn. However, the TMR (6-carboxytetramethylrhodamine) fluorophore attached to hepcidin remains associated with the cell after degradation of the hepcidin peptide backbone. Therefore, microscopic detection of ceH associated TMR fluorescence is a measure of hepcidin binding to Fpn and internalization of hepcidin and Fpn. If TMR-hepcidin is prevented from binding to Fpn, cellular TMR fluorescence remains low (Dürrenberger et al, 2013). The effect of small molecular weight Fpn inhibitor compounds in this assay was evaluated in vitro as described below.
J774 cells, harvested from ca. 80% confluent cultures, were plated at 8×10^5 cells/ml in complete medium (DMEM, 10% FBS, 1% Penicillin-Streptomycin) containing 200 μM Fe(III)NTA (nitrilotriacetic acid), 100 μl per well of 96 well MicroClear plates (Greiner; Cat. 655090) and grown at 37° C. with 5% CO2. After overnight incubation, cells were washed 3 times with pre-warmed DMEM w/o phenol red, 30 μl/well of DMEM w/o phenol red was added after the final wash and 10 μl/well of dilution series of test compounds were added in triplicates. […] Cells were incubated in a total volume of 50 μl at 37° C. with 5% CO2 for 2 hours, then Hoechst 33342 dye was added to a final concentration of 0.5 μg/ml to stain nuclei and further incubated for 10 min. at 37° C. with 5% CO2. Cells were washed 3 times with PBS and fixed in 100 μl of 4% paraformaldehyde in PBS for 15 min. at room temperature. After removal of the paraformaldehyde solution, cells were washed 3 times with PBS leaving 100 μl per well and the plates were sealed with foil plate seal. TMR (530-550 nm excitation/575-625 nm emission/400 ms exposure time) and Hoechst 33342 (360-370 nm excitation/420-460 nm emission/10 ms exposure time) fluorescence images were acquired using a ScanR plate imager (Olympus) with a 20× high NA objective. Four pictures were acquired per well and fluorescence channel covering ca. 1500 cells per well. The acquired image data was analysed with the ScanR image analysis software. Image analysis included detection of nuclei (Hoechst 33342 fluorescence), identification of cell-associated regions, application of a virtual channel and thresholding for rolling-ball-type background reduction, followed by application of the Sum(Mean) algorithm to measure the TMR fluorescence associated with cells as a quantitative measure for internalized TMR-hepcidin. IC50 values were calculated with the Sum(Mean) raw data using “log(inhibitor) vs. response” curve fitting of Prism 5 software (GraphPad Software Inc., version 5.02).

human Fpn = target: T2, human Fpn (Homo sapiens, UniProt Q9NP59); experiment: Biophysical Ferroportin-Hepcidin Binding Assay (fluorescence polarization); conditions: average of multiple measurements; 1 μM human Fpn, 20 nM TMR-hepcidin; read-out: FP IC50
T2 construct: FLAG (C); made in house; host or cells: Pichia pastoris
T2 sequence (Q9NP59 1-571): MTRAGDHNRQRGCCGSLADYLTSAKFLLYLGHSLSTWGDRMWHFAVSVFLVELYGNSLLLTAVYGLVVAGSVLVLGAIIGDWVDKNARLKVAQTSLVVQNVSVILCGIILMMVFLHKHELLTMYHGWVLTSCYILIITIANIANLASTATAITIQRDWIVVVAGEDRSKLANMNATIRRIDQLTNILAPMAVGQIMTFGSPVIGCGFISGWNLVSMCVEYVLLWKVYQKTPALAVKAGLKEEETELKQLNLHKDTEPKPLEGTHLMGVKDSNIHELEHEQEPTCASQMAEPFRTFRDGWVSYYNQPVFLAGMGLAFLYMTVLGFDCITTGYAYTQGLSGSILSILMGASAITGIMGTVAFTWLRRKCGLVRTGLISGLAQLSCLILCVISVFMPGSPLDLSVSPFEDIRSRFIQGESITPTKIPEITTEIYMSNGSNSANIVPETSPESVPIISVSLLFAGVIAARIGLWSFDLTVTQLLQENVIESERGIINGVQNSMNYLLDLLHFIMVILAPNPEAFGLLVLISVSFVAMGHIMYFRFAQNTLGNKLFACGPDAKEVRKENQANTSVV
Description: This biophysical assay was developed to confirm inhibition of hepcidin binding to ferroportin (Fpn) more directly. Incubation of TMR-hepcidin with purified human Fpn isolated from Pichia pastoris yeast cells expressing human Fpn with a C-terminal FLAG affinity tag (Bonaccorsi di Patti, 2014) leads to increased fluorescence polarization (FP) of the TMR-hepcidin ligand. Small molecular weight Fpn inhibitors were tested for inhibition of binding of TMR-hepcidin to Fpn, as detected by dose-dependent decrease of the TMR FP signal, as described in detail below.
8 μl of serial dilutions of test compounds were added in duplicates to reach final Fpn and TMR-hepcidin concentrations of 1 μM and 20 nM, respectively. Plates were incubated for 90 minutes at room temperature and parallel (S) and perpendicular (P) fluorescence was measured in a Synergy H1 fluorescence reader (BioTek). FP values were calculated in mP according to the following formula.

Row | SMILES | IC50 (ferroportin (Fpn)) [µM] | IC50 (human Fpn) [µM]
1 | O=C(NCc1ccnc(N2CCOCC2)c1)c1csc(CCNCc2nc3ccccc3[nH]2)n1 [Example 96] | 2.97 | 7.29
2 | CN(C)c1ccc(CNC(=O)c2csc(CCNCc3nc4ccccc4[nH]3)n2)cn1 [Example 98] | 1.85 | 5.71
3 | O=C(NCc1cccnc1F)c1csc(CCNCc2nc3ccccc3[nH]2)n1 [Example 103] | 2.37 | 2.52
4 | COc1cc(CNC(=O)c2csc(CCNCc3nc4ccccc4[nH]3)n2)ccn1 [Example 104] | 0.9 | 1.76
5 | Cc1ccnc(CNC(=O)c2csc(CCNCc3nc4ccccc4[nH]3)n2)c1 [Example 106] | 1.52 | 4.46
6 | O=C(NCc1ncccc1CO)c1csc(CCNCc2nc3ccccc3[nH]2)n1 [Example 110] | 1.7 | 3.42
7 | O=C(NCc1ncccc1F)c1csc(CNCCCc2nc3ccccc3[nH]2)n1 [Example 119] | 0.164 | 5.3
8 | O=C(NCc1ncccc1F)c1csc(CCNc2nc3ccccc3[nH]2)n1 [Example 121] | 0.473 | 5.1
9 | O=C(NCc1ncc(F)cc1F)c1csc(CNCCCc2nc3ccccc3[nH]2)n1 [Example 124] | 6.33 | 3.5
10 | O=C(NCc1ncccc1F)c1csc(CCNCCCc2nc3ccccc3[nH]2)n1 [Example 125] | 1.66 | 3.7
11 | C=C(C)c1sc(CCNCc2nc3ccccc3[nH]2)nc1C(=O)NCc1ncccc1F [Example 177] | 4.2 | 15.4
12 | Cc1cnc(CNC(=O)c2nc(CCNCc3nc4ccccc4[nH]3)sc2Cl)nc1 [Example 178] | 3.64 | 1.92
13 | O=C(NCc1ncccc1F)c1cnn(CC2CN(Cc3nc4ccccc4[nH]3)C2)c1 [Example 187] | 87 | 35.5
14 | O=C(NCc1ncccc1F)c1cnn(CC2CN(CCc3nc4ccccc4[nH]3)C2)c1 [Example 192] | 13.6 | 49.3
15 | Cn1cc(C(=O)NCc2ncccc2F)nc1CCNCc1nc2ccccc2[nH]1 [Example 210] | 4.91 | 1.88
16 | CC1(c2nc(C(=O)NCc3ncccc3F)cs2)CN(CCc2nc3ccccc3[nH]2)C1 [Example 212] | 8.51 | 3.76

Row | SMILES | IC50 (ferroportin (Fpn)) [µM] | IC50 (human Fpn) [µM]
17 | O=C(NCc1ncccc1F)c1csc(C2CCN(CCc3nc4ccccc4[nH]3)C2)n1 (stereo not shown) [Example 214] | 14.1 | 3.19
18 | O=C(NCc1ccccn1)c1csc(C2CCN(CCc3nc4ccccc4[nH]3)C2)n1 (stereo not shown) [Example 215] | 27.7 | 15.6
19 | O=C(NCc1ncccc1F)c1csc([C@H]2[C@@H]3CN(CCc4nc5ccccc5[nH]4)C[C@@H]32)n1 [Example 218] | 4.5 | 2.2
20 | Cc1c(C(=O)NCc2ncccc2F)ncn1CCNCCc1nc2ccccc2[nH]1 [Example 219] | 2.43 | 1.1
21 | CN(CCc1nc2ccccc2[nH]1)CCc1nc(C(=O)NCc2ncccc2F)co1 [Example 223] | 1.9 | 2.68
22 | O=C(NCc1ncccc1F)c1cccc(CCNCCc2nc3ccccc3[nH]2)c1 [Example 235] | 0.91 | 0.295
23 | O=C1N[C@@H](CCN2CCCc3nc4ccccc4n3C2)C(=O)N1CCc1ncccc1F [Example 240] | 2.45 | 2.67
24 | O=C(NCc1ncccc1F)c1cccc(CCNCCc2nc3c(F)cccc3[nH]2)c1 [Example 241] | 2.1 | 1.65
25 | CC(C)(CNCCc1nc2ccccc2[nH]1)c1nc(C(=O)NCc2ncccc2F)cs1 [Example 242] | 8.92 | 27.8
26 | O=C(NCc1cccnn1)c1coc(C2CN(CCc3nc4c(F)cccc4[nH]3)C2)n1 [Example 261] | 0.554 | 0.44
27 | O=C(c1csc(CCNCc2nc3ccccc3[nH]2)n1)N1CCCCC1 [compound 14] | 4.9 | 14.9
28 | O=C(CC(=O)NCc1ncccc1F)NCCNCc1nc2ccccc2[nH]1 [compound 149] | 6.25 | 17
29 | O=C(CC(=O)NCc1ncccc1F)NCCNCCc1nc2ccccc2[nH]1 [compound 168] | 0.884 | 1.36
30 | O=C(CCNCc1nc2ccccc2[nH]1)NCC(=O)NCc1ncccc1F [compound 172] | 3.93 | 3.4
31 | O=C(NCc1ncccc1F)[C@@H]1CCN(CCNCc2nc3ccccc3[nH]2)C1 [compound 204] | 3.3 | 1.63
32 | O=C(NCc1ncccc1F)c1ccnc(CCNCc2nc3ccccc3[nH]2)c1 [compound 222] | 3.4 | 0.808
